Laboratory results reported in patent publication US4912092A, “Methods for increasing extracellular adenosine and for stabilizing mast cells” (The Regents of the University of California, priority 1987, dated 1990).
Values joined by “and” are separate entries in the source; they are usually repeats but may differ in a detail not shown here. Identical values can stand only once. “Also recorded” adds a separate entry of the source.

Assays:
[1] = tested on: Mouse bone marrow-derived mast cells; experiment: Mast cell leukotriene C4 release (radioimmune assay); type: cell-based
Protocol: By preventing mast cell degranulation, it is possible to prevent or control a patient's allergic response. Bone marrow obtained from Balb/C mice femurs was cultured in a 1:1 mixture of Razin media and conditioned media, produced by co-culturing splenocytes from C57B1/6J and C3H mice in the presence of Concanavalin A as described by Razin et al. in the Proc. Natl. Acad. Sci. USA 28: 2559-2561, 1981. After weekly passaging and at least 15 days in tissue culture, the resulting cells were 90% pure mast cells and 95% viable as assessed by Trypan blue exclusion. Cells exposed to ribavirin in culture were washed three times prior to use in experiments. Parallel cultures of cells grown in media alone were used as controls for pharmacologically manipulated mast cells. Cell growth was assessed by counting cells at particular time points and comparing actual numbers of ribavirin-treated cells to numbers of cells grown in media alone.

[2] = Plasma, CSF, erythrocyte and urine measurements in the patient trial; type: in vivo, human
Text: (§1) Following authorization, therapeutic trials with AICA riboside were started in two patients with adenylosuccinase deficiency (autism). […] On Day 55, both patients were briefly readmitted for clinical, biochemical and psychiatric evaluation. […] Treatment was maintained until Day 71, and arrested at that date.
A correct assessment of the renal loss of the nucleoside could not be obtained.

[3] = tested on: arrhythmias; experiment: Arrhythmias (PVD, VTAC) during ischemia in dogs; type: in vivo, dog
Protocol: (§2) Thirteen mongrel dogs were anesthetized with phenobarbital. […] C.V. Dis. 20; 55 (1977). […] Two of the surviving saline-treated animals fibrillated. […] The range was 4.4 to 100 μM.
One consequence of myocardial ischemia is arrhythmia and the frequency of arrhythmias is related to the degree of reduced blood flow. […] Electrocardiograms recorded during ischemia of Example III were analyzed for the number of premature ventricular depolarizations (PVD) and ventricular tachycardia (VTAC) episodes.

[4] = tested on: inosine; experiment: Venous inosine levels during coronary artery occlusion in dogs; type: in vivo, dog; conditions: over the 60-minute assay period (FIG. 5)
Protocol: as §2
That the increase in the levels of adenosine is due, at least in part, to a reduction in the amount of ATP that is converted to inosine was shown by analysis of venous blood from dogs in Example III for inosine levels.

[5] = dog, in vivo
Protocol: Thirteen mongrel dogs were anesthetized with phenobarbital. The anterior coronary vein was cannulated and a blood sample was collected into 2N perchloric acid. […] Regional myocardial blood flow was measured within 15 μm radiolabelled spheres infused into the left atzium at 5 and 60 minutes during the ischemic period, as described by Heymann et al. in Prog. […] The electrocardiogram and arterial pressure were monitored throughout the period of ischemia.

[6] = tested on: adenylosuccinase deficiency (autism); experiment: Therapeutic trial in patients with adenylosuccinase deficiency (autism); type: in vivo, human
Text: as §1

[7] = one hour after intravenous administration
[8] = dogs 1-6 of the AICA riboside group
[9] = after two months of continuous administration

AICA riboside in plasma and CSF ([2]; all dosages used, oral 5 to 2×10 mg/kg/day and intravenous 20 mg/kg/day): could not be detected
AICA riboside in plasma [2, 7]: undetectable in plasma
concentrations of AICA riboside triphosphate reached in erythrocytes ([2]; oral as well as intravenous administration): of the same magnitude as those of GTP
arterial blood gas-content and systemic venous granulocyte counts versus saline [5]: not significantly different
haematology and clinical chemistry parameters ([6]; before and during the trial treatment): normal
Compound: NC(=O)c1ncn([C@@H]2O[C@H](CO)[C@@H](O)[C@H]2O)c1N [AICA riboside, 5-amino-4-imidazolecarboxamide riboside]
supernatant leukotriene C4 concentration ([1]; 100 μM for six days, A23187 challenge 20 minutes, control 51): 13 nanograms/10^6 cells
inhibition at 100 µM ([1]; Mus musculus, Mast cell, 100 μM pretreatment for six days, p<0.01, read-out: reduction of leukotriene C4 release): 75%
AICA riboside triphosphate in the erythrocytes [2, 7]: had similarly accumulated in the erythrocytes
VTAC, average ([3]; average of six dogs, saline 18.2, p<0.01): 4.7 EPISODES/H
PVD, average ([3]; average of six dogs, saline 112.2, p<0.01): 37.8 EPISODES/H
PVD, individual dogs [3, 8]: 12 EPISODES/H and 10 EPISODES/H and 182 EPISODES/H and 4 EPISODES/H and 13 EPISODES/H and 6 EPISODES/H
VTAC, individual dogs [3, 8]: 1 EPISODES/H and 0 EPISODES/H and 27 EPISODES/H
inosine levels in venous blood versus saline [4]: more than twofold decrease
systemic arterial pressure and heart rate versus saline [5]: no significant differences
autistic features, older patient [6, 9]: did not show any modification
autistic features, younger sibling [6, 9]: clear-cut improvement
parent's description of both patients ([6]; during therapy): more pleasantly active and more easy to handle during therapy
clinical or biochemical side effects ([6]; oral 5 mg/kg/day up to 2×10 mg/kg/day): no adverse effects; also recorded: No clinical or biochemical side effects were observed
